Measured values from patent publication US10928398B2, “Method for double staining colocalized nuclear-markers in histological lymphoid or bone marrow tissue sample” (CORNELL UNIVERSITY, priority 2008, dated 2021).

Columns and labels:
Myeloma = conditions: cited from earlier work
[1] = test system: Ki67 expression in lymphoma cells; test: Double IHC PAX5/Ki67 with image analysis of lymph node biopsies of a B cell lymphoma patient in a phase I trial; assay type: in vivo, human; conditions: day 21 of therapy, 97.52% prior to treatment
Excerpt: (§1) The double stained IHC slides were accessioned into the image analysis system and then loaded onto the machine in batches of 60. A robotic arm picked up each slide, one at a time, and loaded it onto the microscope. Via a motorized stage, the microscope moves and scans the slide, looking for tissue, the location of which varies slightly from slide to slide. Once it has found the tissue, the device scans the tissue and the camera records low resolution images. Using the scanned low resolution images, the inventor selected ten good areas for subsequent high resolution scanning and analysis. Numerous data points were then calculated for each of the ten areas per slide, and those data were averaged.
(§2) Since no counterstain was used in these slides, all identifiable cells are positive for at least one marker (e.g., in FIG. 3A, cells that express neither MUM1 nor pSRb are not visible). The characteristics used for the analysis (“classifiers”) were determined by a process whereby the inventor trained the software what was considered to be cells of each color. The software analyzed the high resolution images by first applying color parameters to decide if a nucleus was blue, red, or purple. It finds pixels within the appropriate range of color parameters as defined by hue, saturation, and intensity; objects too light or too dark, as determined by the classifiers, were not included in the analysis. […]

[2] = test system: MM cells (MUM1 positive) expressing Ki67 or pSRb; test: Double IHC MUM1/Ki67 or MUM1/pSRb of bone marrow biopsies of multiple myeloma patients in a phase I/II trial; assay type: in vivo, human; conditions: for Effect on cycling of MM cells (Ki67, pSRb): MM patient bone marrow, after treatment for 8 days
Method: In hematopoietic cancer biopsies, the non-cancer hematopoietic and immune cells must be excluded. In this example, multiple myeloma (MM) cells were identified in biopsy samples with an anti-MUM1 antibody and a detection system yielding a red signal. Specificity of MUM1 for myeloma cells in MM biopsies is estimated at ˜99%, thus excluding non-MM cells from the analysis. Double IHC was performed to detect cell cycle molecules in situ in MM cells. Each slide was stained for MUM1 (above) using Bond™ Polymer AP Red Detection System (DS9305, Leica, Bannockburn, Ill.) to afford a red pigment, and for the cell cycle molecule with Blue Alkaline Phosphate Substrate Kit (Vector Laboratories, Burlingame, Calif.) to afford a blue pigment. The cell cycle molecules, including Ki67 and pSRb, are nuclear. With these particular chromogen systems, double staining yielded MM cells with either a red nuclear signal if the cell was not proliferating or a purple nuclear signal if the MM cells were proliferating (positive for the cell cycle molecule in question). Cells with a blue nuclear signal ([…]) were non MM cells (FIG. 3A) that were proliferating.
To compute the percentage of MM cells expressing various cell cycle molecules, purple (MUM1+/cell cycle molecule+) cells were manually counted as a percentage of purple cells plus red (MUM1+/cell cycle molecule negative) cells. This manual method of analysis can be performed with any standard microscope.
To increase the accuracy, the same slides were first loaded in batches of 60 into an image analysis system, which performs photographic digital scans of each slide. Using an automatic image analyzer, the number of cells with a purple nucleus and those with a red nucleus in a given area was determined. The counts were performed in triplicate. The percentage of MM cells in the proliferative stage represented by the cell cycle molecule targeted is the number of purple cells divided by the number of purple and red cells. […] The intensity of positive staining was scored in comparison to expression in B cells from serial sections of a single tonsil control slide, run in parallel with the marrow slides. […]
IHC was performed on 4 micron sections of paraffin-embedded bone marrow tissues using a Leica Microsystems (Bannockburn, Ill.) Bond Max automated immunostainer. MUM1 MM cells were detected using an anti-MUM1 mouse monoclonal antibody (Mab) (Dako, Carpinteria, Calif.) and the Bond™ Polymer AP Red Detection System (Leica). Simultaneous expression of other proteins was detected with monoclonal antibodies to Ki-67, cyclin D1, cyclin D2, cyclin D3, MCM2, MCM7, skp2, p16, p18, p21, p27, Rb, c-myc, Cdk4 and Cdk6 and polyclonal rabbit antisera to either pSer^807/811, pSer^608 or pSer^780 of human Rb. […]

[3] = test system: Rb phosphorylation by Cdk4/6 at serine 807/811 (pS807/811Rb) in lymphoma cells; test: Double IHC PAX5/pS807/811Rb with image analysis of lymph node biopsies of a B cell lymphoma patient in a phase I trial; assay type: in vivo, human; conditions: day 21 of therapy, 84.08% before treatment
Excerpt: as §1, §2

relapsed MM = test: Time to progression of relapsed MM patients receiving high-dose Dex in prospective clinical trials; assay type: in vivo, human
Excerpt: High-dose pulsed dexamethasone (Dex) is one of the preferred treatments for relapsed MM patients and is currently the accepted gold standard against which investigational drugs are being tested. The predictors of outcome for relapsed patients while on Dexamthasone (Dex) treatment have not been well established. These predictors were prospectively evaluated using the Ki-67/MUM1 markers in patients with relapsed MM receiving Dex in consecutive, prospective clinical trials. Time to progression is defined as date of Dex initiation to date of progressive disease (PD). Sixteen patients with relapsed MM were evaluated.

## CC(C)C[C@H](NC(=O)[C@H](Cc1ccccc1)NC(=O)c1cnccn1)B(O)O [PS-341(bortezomib), bortezomib]
Myeloma
  Responsiveness, % of patients: 30%

## CC(=O)c1c(C)c2cnc(Nc3ccc(N4CCNCC4)cn3)nc2n(C2CCCC2)c1=O [PD-332991]
[1]
  Ki67 expression in % of lymphoma cells: 23.13%
[2]; 11/11 MM patients
  MM patients showing similar efficacy: 100%
[2]
  Effect on cycling of MM cells (Ki67, pSRb): great efficacy
[2]; listed as CDk4/6 inhibitor
  Effect on cycling of MM cells (Ki67, pSRb): no longer cycling
[2]; biopsies 6 days after cessation of drug administration
  Cycling of MM cells after cessation of drug: returned to cycling in percentages comparable to what was observed prior to treatment
[3]
  pS807/811Rb found in % of lymphoma cells: 2.14%

## C[C@@H]1C[C@H]2[C@@H]3CCC4=CC(=O)C=C[C@]4(C)[C@@]3(F)[C@@H](O)C[C@]2(C)[C@@]1(O)C(=O)CO [Dex, dexamethasone]
Relapsed MM; 16 patients with relapsed MM, n=9
  Patients showing progressive disease: 56%
Relapsed MM; patients with progressive disease, from Dex initiation
  Median time to progressive disease: 87 days
